Assay results as given in paper PMC7576608, “Mechanisms of telomerase inhibition by oxidized and therapeutic dNTPs” (Nature Communications, 2020).
Where “and” joins values, the source holds several entries; their conditions need not be identical. Equal entries are not always repeated.

Columns and labels:
telomerase [1] = target: telomerase (Homo sapiens, UniProt O14746); assay: Direct telomerase assay in the absence or presence of POT1-TPP1 (processivity R1/2); type: biochemical; design: made in house; POT1: baculovirus-infected Sf9; TPP1-N: E. coli BL21(DE3) pLysS; settings: analog substituted for its natural dNTP, other dNTPs at cellular concentration
Text: (§1) Next we tested whether the telomerase processivity factor POT1–TPP1 modulates modified dNTP inhibition of telomerase. POT1 binds to the telomeric ssDNA overhang, requiring the minimum sequence of 5′-[…]-3′[38]. Inclusion of POT1-binding partner TPP1, increases the binding affinity for telomeric DNA ten-fold compared to POT1 alone. POT1–TPP1 recruits telomerase to telomeres in vivo[39], and greatly increases telomerase repeat processivity. Therefore, we reasoned that POT1–TPP1 may overcome inhibition by the modified dNTPs and enhance telomerase processivity. We conducted telomerase extension reactions with radiolabeled primer in the presence of POT1–TPP1, and used a primer with a single mutation ([…]; underlined G to C mutation)[40] to ensure POT1–TPP1 is positioned at the 5′ portion of the primer (Fig. 5). This provides a homogenous substrate for telomerase extension.
(§2) For these reactions, we replaced the natural dNTP with the modified dNTP analog, while the other dNTPs remained at cellular relevant concentrations.
(§3) Direct telomerase assays were conducted in the absence or presence of 500 nM POT1 and 500 nM TPP1, as indicated, and 5 nM ^32P-end labeled primer ([…]) designed to position POT1 at the 10 nt primer 5′ end. Reactions contained cellular-concentration dNTPs (lanes 1 and 2), except when the natural dNTP was substituted with the oxidized dNTP a or therapeutic dNTP b analog (lanes 3–8), as indicated. […] Letters on the right indicate template base; P indicates unextended 18-mer primer. c Processivity was calculated on the basis of total products normalized to loading control. Images are representative of, and data are shown as mean ± s.d. from 3 to 5 independent experiments. Source data are provided as a Source Data file.
(§4) The reactions were started by the addition of 3 μl of immunopurified telomerase eluent, incubated at 37 °C for 1 h, then terminated with 2 μl of […] and heat inactivated at 65 °C for 20 min. An equal volume of loading buffer (94% formamide, 0.1× TBE, 0.1% bromophenol blue, 0.1% xylene cyanol) was added to the reaction eluent. The samples were heat denatured for 10 min at 100 °C and loaded onto a 14% denaturing acrylamide gel (7 M urea, 1× TBE) and electrophoresed for 90 min at constant 38 W. Samples were imaged using a Typhoon phosphorimager (GE Healthcare). Percent primer extension was calculated with ImageQuant TL 8.2 by measuring the intensity of each product band and dividing by the total radioactivity in the lane or total products, as indicated in the figure legends.
(§5) The processivity was calculated as described[40],[67]. Repeat processivity from the direct telomerase extension assays was calculated as R1/2 (equivalent to the half-time for decay in an exponential time course), which represents the median length of DNA product formed, expressed in terms of number of telomere repeats. First, the total volume counts for each product band extend by one or more telomere repeats were obtained using Image Quant TL. The volume counts were then normalized by dividing by the number of radiolabeled guanosines incorporated into the extended products based on the number of repeats added, termed corrected volume (corr vol). The “percent left behind” (%LB) was calculated for each product band by summing the counts for that product band and for every product band below (shorter products), divided by the total counts for the lane, and then multiplied by 100. The natural log of (100−%LB) was calculated and then plotted vs. repeat number for each product length. A linear regression line was fit to the data to determine the slope of the line.

telomerase [2] = assay: as above; type: biochemical, human; settings: for Effect of POT1-TPP1 on telomerase in presence of analog (in words): analog substituted for its natural dNTP
Text: as §1, §2, §3, §4, §5

[3] = 500 nM POT1 and 500 nM TPP1, Mean
[4] = 500 nM POT1 and 500 nM TPP1, n1-n3

| Structure (SMILES) | Processivity R 1/2 (telomerase [1]; [3]) | Processivity R 1/2 (telomerase [1]; 500 nM POT1 and 500 nM TPP1, Mean, listed as 2dA) | Processivity R 1/2 (telomerase [1]; 500 nM POT1 and 500 nM TPP1, n1-n3, listed as 2dA) | Processivity R 1/2 (telomerase [1]; Control (no POT1-TPP1), Mean) | Processivity R 1/2 (telomerase [1]; Control (no POT1-TPP1), Mean, listed as 2dA) | Processivity R 1/2 (telomerase [1]; Control (no POT1-TPP1), n1-n3, listed as 2dA) | Fold enhancement of repeat processivity by POT1-TPP1 (telomerase [2]; 2-OH-dATP replaced dATP) [fold] | Processivity R 1/2 (telomerase [1]; [4]) | Processivity R 1/2 (telomerase [1]; Control (no POT1-TPP1), n1-n3) | Effect of POT1-TPP1 on telomerase in presence of analog (in words) (telomerase [2]) | Processivity R 1/2 (telomerase [1]; 500 nM POT1 and 500 nM TPP1, n1-n3, listed as 8dA) |
| --- | --- | --- | --- | --- | --- | --- | --- | --- | --- | --- | --- |
| Nc1nc(O)nc2c1ncn2C1CC(O)C(COP(=O)(O)OP(=O)(O)OP(=O)(O)O)O1 (centres unmarked) [2-OH-dATP] | 2.3 | 2.27 | 2.20 and 2.10 and 2.50 | 0.5 | 0.49 | 0.49 and 0.48 and 0.51 | 5 |  |  |  |  |
| Nc1nc2c(ncn2C2CC(O)C(COP(=O)(O)OP(=O)(O)OP(=O)(O)O)O2)c(=S)[nH]1 (centres unmarked) [6-thio-dGTP] | 0.00 |  |  | 0.00 |  |  |  | 0.00 | 0.00 | failed to stimulate telomerase |  |
| Nc1ncnc2c1[nH]c(=O)n2C1CC(O)C(COP(=O)(O)OP(=O)(O)OP(=O)(O)O)O1 (centres unmarked) [8-oxo-dATP] | 1.31 |  |  | 0.00 |  |  |  |  | 0.00 | some POT1–TPP1 stimulation | 1.15 and 1.30 and 1.47 |
| Nc1nc2c([nH]c(=O)n2C2CC(O)C(COP(=O)(O)OP(=O)(O)OP(=O)(O)O)O2)c(=O)[nH]1 (centres unmarked) [8-oxo-dGTP] | 0.00 |  |  | 0.00 |  |  |  | 0.00 | 0.00 | unable to overcome the chain termination |  |
| Cc1cn([C@H]2C[C@H](N=[N+]=[N-])[C@@H](CO[P@](=O)(O)O[P@](=O)(O)OP(=O)(O)O)O2)c(=O)[nH]c1=O [AZT-TP] | 0.00 |  |  | 0.00 |  |  |  | 0.00 | 0.00 | failed to stimulate telomerase processivity |  |
| O=c1[nH]cnc2c1ncn2C1CCC(COP(=O)(O)OP(=O)(O)OP(=O)(O)O)O1 (centres unmarked) [ddITP] | 0.00 |  |  | 0.00 |  |  |  | 0.00 | 0.00 | failed to stimulate telomerase processivity |  |
